Experimental data taken from patent US8568755B2 (priority 2007, dated 2013).
Values joined by “and” are separate entries in the source; they are usually repeats but may differ in a detail not shown here. Identical values can stand only once. Like-named read-outs stand apart in the source and are kept apart here.

How the values were obtained:
Erysiphe graminis = experiment: Test on preventive effect against wheat powdery mildew (Test Example 1); type: in vivo
Septoria nodorum = experiment: Test on preventive effect against wheat glum bloth (Test Example 3); type: in vivo
Method: Wheat (cultivar: Norin-61-go) was cultivated in a plastic pot having a diameter of 7.5 cm, and when it reached 1.5-leaf stage, a mixed chemical solution having the respective sample compounds adjusted to prescribed concentrations, was applied by a spray gun in an amount of 10 ml per seedling. After the chemical solution dried, a suspension of conidia of Septoria nodorum was sprayed and inoculated and maintained at 20° C. for 7 days (for the first 3 days maintained under high humidity condition). Thereafter, the area of lesions was investigated, and the diseased area ratio to non-treated section was obtained by the following equation. Diseased area ratio to non-treated section=(a/b)×100
a: Average area of lesions in treated section
b: Average area of lesions in non-treated section
Further, the theoretical value was calculated by a Colby's formula and shown in brackets ( ) in Tables 3-1 to 3-14. Since the diseased area ratio to non-treated section (experimental value) is lower than the theoretical value, the composition of the present invention can be said to have a synergistic effect.

Botrytis cinerea [1] = experiment: Test on preventive effect against kidney bean gray mold (Test Example 4); type: in vivo
Method: Kidney bean (cultivar: Taisyou Kintoki) was cultivated in a plastic pot having a diameter of 12.0 cm, and when it reached 2.5-leaf stage, a mixed chemical solution having the respective test compounds adjusted to prescribed concentrations, was applied by a spray gun in an amount of 10 ml per seedling. After the chemical solution dried, the leaf was cut out, and a filter paper disk (8 mm in diameter) was placed on the leaf. Then, 120 μl of a suspension of spores of Botrytis cinerea (1.0×10^6 spores/ml) was dropped thereon and inoculated. The system was maintained under a humidity condition at 20° C. for three days, whereupon the area of lesions was investigated, and the diseased area ratio to non-treated section was obtained in the same manner as in Test Example 3. Further, the theoretical value was calculated by a Colby's formula and shown in brackets ( ) in Tables 4-1 to 4-19. Since the diseased area ratio to non-treated section (experimental value) is lower than the theoretical value, the composition of the present invention can be said to have a synergistic effect.

Botrytis cinerea [2] = experiment: Test on antifungal activity against gray mold pathogen, mycelial growth on agar (Test Example 6); type: cell-based
Method: Mycelial growth of Botrytis cinerea preliminarily obtained by cultivation was punched out by a cork borer having a diameter of 4 mm and transplanted on a potato sucrose agar medium containing mixed chemical agents adjusted to prescribed concentrations. The system was left to stand at 25° C. for 3 days for cultivation, whereupon the diameter of mycelial growth was measured. The incidence to non-treated section was obtained in the same manner as the above Test Example 5, and the results are shown in Table 6-1 to 6-3.
Further, the theoretical value was calculated by a Colby's formula and shown in brackets ( ) in Tables 6-1 to 6-3. Since the incidence to non-treated section is lower than the theoretical value, the composition of the present invention can be said to have a synergistic effect.

Sphaerotheca fuliginea = type: in vivo
Botrytis cinerea [3] = experiment: Test on antifungal activity against gray mold pathogen, intersecting filter papers (Test Examples 7 and 8); type: cell-based; conditions: for distance from both ends of the filter paper to mycelial growth area of Botrytis cinerea (average): single use section, 30 ppm
[4] = partner fungicide alone 0.125 ppm

Cc1cc(OC(C)C)ccc1C(=O)C(C)(C)NC(=O)c1sccc1C [Compound No. 5, N-[[2′-methyl-4′-(2-propyloxy)-1,1-dimethyl]phenacyl]-3-methyl-2-thiophenecarboxamide]
diseased area ratio to non-treated section (Erysiphe graminis; Compound (a) alone 250 ppm): 0.6
diseased area ratio to non-treated section (experimental value) (Septoria nodorum; single use at 12.5 ppm): 30.0
diseased area ratio to non-treated section (experimental value) (Septoria nodorum; single use at 50 ppm): 20.0
diseased area ratio to non-treated section (experimental value) (Botrytis cinerea [1]; single use at 4 ppm): 74.0 and 83.5
diseased area ratio to non-treated section (experimental value) (Botrytis cinerea [1]; single use at 8 ppm): 74.7
incidence to non-treated section (mycelial growth diameter) (Botrytis cinerea [2]; single use at 5 ppm): 32.3

OC(Cc1ccccc1Cl)(Cn1nc[nH]c1=S)C1(Cl)CC1 (stereo not drawn) [prothioconazole]
diseased area ratio to non-treated section (experimental value) (Septoria nodorum; single use at 10 ppm): 30.0

O=C1C2CC=CCC2C(=O)N1SC(Cl)(Cl)Cl (stereo not drawn) [captan]
incidence to non-treated section (mycelial growth diameter) (Botrytis cinerea [2]; single use at 1 ppm): 94.4

CCCC(C)Oc1ccc(C(=O)C(C)(C)NC(=O)c2ncccc2C(F)(F)F)cc1 (stereo not drawn) [No. 11]
diseased area ratio to non-treated section (Erysiphe graminis; Compound No.x alone 63 ppm): 45.0 and 60.0
diseased area ratio to non-treated section (Erysiphe graminis; Compound No.x alone 125 ppm): 35.0
diseased area ratio to non-treated section (Erysiphe graminis; Compound No.x alone 250 ppm): 22.5 and 12.5
diseased area ratio to non-treated section (Sphaerotheca fuliginea; Compound No.x alone 8 ppm): 4.0

CCCCC(C#N)(Cn1cncn1)c1ccc(Cl)cc1 (stereo not drawn) [myclobutanil]
diseased area ratio to non-treated section (experimental value) (Septoria nodorum; single use at 5 ppm): 60.0
diseased area ratio to non-treated section (experimental value) (Septoria nodorum; single use at 20 ppm): 35.0

Cc1ccsc1C(=O)NC(C)(C)C(=O)c1ccc(OC(C)C)cc1 [Compound No. 8, N-[[4′-(2-propyloxy)-1,1-dimethyl]phenacyl]-3-methyl-2-thiophenecarboxamide]
diseased area ratio to non-treated section (experimental value) (Sphaerotheca fuliginea; single use at 1 ppm): 35.0
diseased area ratio to non-treated section (experimental value) (Sphaerotheca fuliginea; single use at 2 ppm): 10.0
diseased area ratio to non-treated section (experimental value) (Septoria nodorum; single use at 12.5 ppm): 35.0
diseased area ratio to non-treated section (experimental value) (Septoria nodorum; single use at 50 ppm): 20.0

CC1CCN(c2c(-c3c(F)cc(F)cc3F)c(Cl)nc3ncnn23)CC1 [Compound α, 5-chloro-7-(4-methylpiperidin-1-yl)-6-(2,4,6-trifluorophenyl)-[1,2,4]triazolo[1,5-a]pyrimidine, reference compound]
diseased area ratio to non-treated section (experimental value) (Botrytis cinerea [1]; single use at 4 ppm): 43.0
diseased area ratio to non-treated section (experimental value) (Botrytis cinerea [1]; single use at 8 ppm): 15.0

Fc1ccc([C@]2(Cn3cncn3)O[C@H]2c2ccccc2Cl)cc1 (racemic) [epoxiconazole]
diseased area ratio to non-treated section (Erysiphe graminis; fungicide (b) alone 0.5 ppm): 21.2
diseased area ratio to non-treated section (Erysiphe graminis; fungicide (b) alone 1 ppm): 3.0

Cc1ccsc1C(=O)NC(C)(C)C(=O)c1ccc(OC(C)C)cc1 [No. 8]
diseased area ratio to non-treated section (Erysiphe graminis; Compound No.x alone 63 ppm): 60.0
diseased area ratio to non-treated section (Erysiphe graminis; Compound No.x alone 125 ppm): 55.0 and 30.0
diseased area ratio to non-treated section (Sphaerotheca fuliginea; Compound No.x alone 1 ppm): 81.3
diseased area ratio to non-treated section (Sphaerotheca fuliginea; Compound No.x alone 2 ppm): 45.0 and 75.0

CC(Cc1ccc(C(C)(C)C)cc1)CN1C[C@@H](C)O[C@@H](C)C1 (stereo partly drawn) [fenpropimorph]
diseased area ratio to non-treated section (Erysiphe graminis; fungicide (b) alone 12.5 ppm): 36.4
diseased area ratio to non-treated section (Erysiphe graminis; fungicide (b) alone 25 ppm): 9.1

CC(C1CC1)C(O)(Cn1cncn1)c1ccc(Cl)cc1 (stereo not drawn) [cyproconazole]
diseased area ratio to non-treated section (Erysiphe graminis; fungicide (b) alone 0.125 ppm): 97.5
diseased area ratio to non-treated section (Erysiphe graminis; fungicide (b) alone 0.5 ppm): 60.0

CCCN(CCOc1c(Cl)cc(Cl)cc1Cl)C(=O)n1ccnc1 [prochloraz]
diseased area ratio to non-treated section (experimental value) (Septoria nodorum; single use at 5 ppm): 40.0
diseased area ratio to non-treated section (experimental value) (Septoria nodorum; single use at 20 ppm): 15.0

COc1cc(C)c(C(=O)c2c(OC)ncc(Cl)c2C)c(OC)c1OC [Compound D, 3-(2,3,4-trimethoxy-6-methylbenzoyl)-5-chloro-2-methoxy-4-methylpyridine]
diseased area ratio to non-treated section (Erysiphe graminis; partner fungicide alone 0.06 ppm): 27.5
diseased area ratio to non-treated section (Erysiphe graminis; [4]): 15.0

O=[N+]([O-])c1cc(C(F)(F)F)c(Cl)c([N+](=O)[O-])c1Nc1ncc(C(F)(F)F)cc1Cl [fluazinam, reference compound]
diseased area ratio to non-treated section (Sphaerotheca fuliginea; partner fungicide alone 125 ppm): 17.5
diseased area ratio to non-treated section (Sphaerotheca fuliginea; partner fungicide alone 250 ppm): 4.0
diseased area ratio to non-treated section (Sphaerotheca fuliginea; partner fungicide alone 500 ppm): 2.0
distance from both ends of the filter paper to mycelial growth area of Botrytis cinerea (average) (Botrytis cinerea [3]): 5 mm
controlling effect (contact of filter paper with mycelial growth area of Botrytis cinerea) (Botrytis cinerea [3]; single use, filter paper immersed in 30 ppm solution, 20° C. for 4 days): a certain controlling effect

COc1cc(C)c(C(=O)c2c(OC)ncc(Br)c2Cl)c(OC)c1OC [Compound C, 3-(2,3,4-trimethoxy-6-methylbenzoyl)-5-bromo-4-chloro-2-methoxypyridine]
diseased area ratio to non-treated section (Erysiphe graminis; [4]): 37.5
diseased area ratio to non-treated section (Erysiphe graminis; partner fungicide alone 0.5 ppm): 6.0

CC1(C)COC(C)(CCCc2ccc(Cl)cc2)N1C(=O)n1ccnc1.CC1(C)COC(C)(CCCc2ccc(Cl)cc2)N1C(=O)n1ccnc1.O=C(O)/C=C/C(=O)O (stereo not drawn) [oxpoconazole fumarate]
distance from both ends of the filter paper to mycelial growth area of Botrytis cinerea (average) (Botrytis cinerea [3]): 7.5 mm

CC(C)Oc1ccc(C(=O)C(C)(C)NC(=O)c2ncccc2C(F)(F)F)cc1 [Compound No. 7, N-[[4′-(2-propyloxy)-1,1-dimethyl]phenacyl]-3-trifluoromethyl-2-pyridinecarboxamide]
diseased area ratio to non-treated section (Erysiphe graminis; Compound (a) alone 8 ppm): 30.0
diseased area ratio to non-treated section (Erysiphe graminis; Compound (a) alone 16 ppm): 25.0
diseased area ratio to non-treated section (Erysiphe graminis; Compound (a) alone 31 ppm): 4.0

N#Cc1c[nH]cc1-c1cccc2c1OC(F)(F)O2 [fludioxonil]
diseased area ratio to non-treated section (Erysiphe graminis; fungicide (b) alone 125 ppm): 95.0
diseased area ratio to non-treated section (Erysiphe graminis; fungicide (b) alone 250 ppm): 90.0
diseased area ratio to non-treated section (Erysiphe graminis; fungicide (b) alone 500 ppm): 85.0

Cc1cc(OC(C)C)ccc1C(=O)C(C)(C)NC(=O)c1sccc1C [No. 5]
diseased area ratio to non-treated section (Erysiphe graminis; Compound No.x alone 16 ppm): 25.0
diseased area ratio to non-treated section (Erysiphe graminis; Compound No.x alone 31 ppm): 17.5 and 12.5
diseased area ratio to non-treated section (Erysiphe graminis; Compound No.x alone 63 ppm): 10.0
diseased area ratio to non-treated section (Erysiphe graminis; Compound No.x alone 125 ppm): 2.5
diseased area ratio to non-treated section (Sphaerotheca fuliginea; Compound No.x alone 8 ppm): 2.5

COC(=O)NCc1cc(/C(C)=N/OCc2cccc(C)n2)ccc1Cl [pyribencarb]
diseased area ratio to non-treated section (experimental value) (Botrytis cinerea [1]; single use at 4 ppm): 70.0
diseased area ratio to non-treated section (experimental value) (Botrytis cinerea [1]; single use at 8 ppm): 65.0

COc1ccccc1N1CCSC1=C(C#N)Sc1cc(C(F)(F)F)ccc1F [Compound γ, 2-(2-fluoro-5-(trifluoromethyl)phenylthio)-2-(3-(2-methoxyphenyl)thiazolidin-2-yliden)acetonitrile, reference compound]
diseased area ratio to non-treated section (experimental value) (Botrytis cinerea [1]; single use at 1 ppm): 88.6
diseased area ratio to non-treated section (experimental value) (Botrytis cinerea [1]; single use at 10 ppm): 88.6

CCCOc1nc2ccc(I)cc2c(=O)n1CCC [proquinazid]
diseased area ratio to non-treated section (experimental value) (Botrytis cinerea [1]; single use at 10 ppm): 96.2
diseased area ratio to non-treated section (experimental value) (Botrytis cinerea [1]; single use at 100 ppm): 92.4

COc1cc(C)c(C(=O)c2c(Cl)cnc(Cl)c2C(F)(F)F)c(OC)c1OC [Compound A, 4-(2,3,4-trimethoxy-6-methylbenzoyl)-2,5-dichloro-3-trifluoromethylpyridine]
diseased area ratio to non-treated section (Erysiphe graminis; [4]): 65

S1SSSSSSS1 [sulfur]
diseased area ratio to non-treated section (Erysiphe graminis; fungicide (b) alone 50 ppm): 97.5
diseased area ratio to non-treated section (Erysiphe graminis; fungicide (b) alone 500 ppm): 40.0

O=C(Cc1ccccc1)N/C(=N\OCC1CC1)c1c(C(F)(F)F)ccc(F)c1F [cyflufenamid]
diseased area ratio to non-treated section (experimental value) (Botrytis cinerea [1]; single use at 10 ppm): 87.3
diseased area ratio to non-treated section (experimental value) (Botrytis cinerea [1]; single use at 100 ppm): 82.3

CO/N=C(/C(=O)OC)c1ccccc1COc1ccccc1C [kresoxim-methyl]
diseased area ratio to non-treated section (Erysiphe graminis; fungicide (b) alone 12.5 ppm): 4.9
diseased area ratio to non-treated section (Erysiphe graminis; fungicide (b) alone 25 ppm): 1.8
